Experimental findings from PubChem BioAssay AID252 (DTP/NCI, 2004) are described below.

Molecules are shown by their SMILES. “And” between values parts separate entries of the source, which are not always exact repeats. Identical values can stand only once. Toxic doses and inconclusive results are not listed.

For this test, the system named is BDF1 mice, intracerebral L1210 leukemia, survival T/C. The test is described as follows: NCI In Vivo Anticancer Drug Screen. Data for tumor model L1210 Leukemia (intracerebral) in B6D2F1 (BDF1) mice. The settings on record: endpoint: mean survival time, higher = longer survival. The essentials:
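Antitumour effect is judged in mice with transplanted tumour by comparing survival of treated (T) against vehicle-dosed (C) groups as T/C.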

The mark [1] stands for this setting: dose: 8.0 mg/kg/injection, schedule: Q01DX001 (ip), vehicle: carboxymethylcellulose (CMC).
Where [2] appears, read: dose: 12.0 mg/kg/injection, schedule: Q01DX001 (ip), vehicle: carboxymethylcellulose (CMC).
The mark [3] stands for this setting: dose: 18.0 mg/kg/injection, schedule: Q01DX001 (ip), vehicle: carboxymethylcellulose (CMC).

For the molecule `C[C@H](N)C(=O)N[C@@H]1[C@H]2C(=C(O)C[C@@H](O)[C@@H]2O)C(=O)O[C@@H]1C`, the T/C (dose: 125.0 mg/kg/injection, schedule: Q01DX Z (ip), vehicle: saline) was 97 % of control; the T/C (dose: 211.0 mg/kg/injection, schedule: Q01DX015 (ip), vehicle: saline) is 103 % of control; the T/C (dose: 250.0 mg/kg/injection, schedule: Q01DX Z (ip), vehicle: saline) was 107 % of control; the T/C (dose: 320.0 mg/kg/injection, schedule: Q01DX015 (ip), vehicle: saline) was 103 % of control; the T/C (dose: 480.0 mg/kg/injection, schedule: Q01DX015 (ip), vehicle: saline) is 102 % of control; the T/C (dose: 500.0 mg/kg/injection, schedule: Q01DX Z (ip), vehicle: saline) is 109 % of control. Moreover, the T/C runs as follows: (dose: 720.0 mg/kg/injection, schedule: Q01DX015 (ip), vehicle: saline) 103 % of control; (dose: 750.0 mg/kg/injection, schedule: Q01DX Z (ip), vehicle: saline) 107 % of control; (dose: 1000.0 mg/kg/injection, schedule: Q01DX Z (ip), vehicle: saline) 106 % of control; (dose: 1080.0 mg/kg/injection, schedule: Q01DX015 (ip), vehicle: saline) 105 % of control; (dose: 1500.0 mg/kg/injection, schedule: Q01DX Z (ip), vehicle: saline) 106 % of control; (dose: 2024.0 mg/kg/injection, schedule: Q01DX001 (ip), vehicle: saline) 109 % of control. The T/C (dose: 3082.0 mg/kg/injection, schedule: Q01DX001 (ip), vehicle: saline) was 105 % of control.

As to `O=NN(CCCl)C(=O)Nc1ccc(Oc2ccc(NC(=O)N(CCCl)N=O)cc2)cc1`, the T/C runs as follows: (dose: 440.0 mg/kg/injection, schedule: Q01DX001 (ip), vehicle: carboxymethylcellulose (CMC)) 116 % of control; (dose: 670.0 mg/kg/injection, schedule: Q01DX001 (ip), vehicle: carboxymethylcellulose (CMC)) 119 % of control; (dose: 1500.0 mg/kg/injection, schedule: Q01DX001 (ip), vehicle: carboxymethylcellulose (CMC)) 122 % of control.

As to `CC12CC3(C)CC(C)(C1)CC(NC(=O)N(CCF)N=O)(C2)C3`, the T/C (dose: 82.0 mg/kg/injection, schedule: Q01DX001 (ip), vehicle: other) is 113 % of control.

For `O=NN(CCCl)C(=O)Nc1cccc(Cl)c1`, the T/C is 102 % of control (dose: 44.0 mg/kg/injection, schedule: Q01DX001 (ip), vehicle: carboxymethylcellulose (CMC)); 100 % of control (dose: 67.0 mg/kg/injection, schedule: Q01DX001 (ip), vehicle: carboxymethylcellulose (CMC)); 107 % of control (dose: 77.0 mg/kg/injection, schedule: Q01DX001 (ip), vehicle: carboxymethylcellulose (CMC)); 98 % of control (dose: 100.0 mg/kg/injection, schedule: Q01DX001 (ip), vehicle: carboxymethylcellulose (CMC)); 103 % of control (dose: 117.0 mg/kg/injection, schedule: Q01DX001 (ip), vehicle: carboxymethylcellulose (CMC)); 108 % of control (dose: 175.0 mg/kg/injection, schedule: Q01DX001 (ip), vehicle: carboxymethylcellulose (CMC)). For the same molecule, where the note is “dose: 252.0 mg/kg/injection, schedule: Q01DX001 (ip), vehicle: carboxymethylcellulose (CMC)”, the T/C was 103 % of control.

Turning to `O=NN(CCCl)C(=O)N[C@H]1CCCC[C@H]1O`, the T/C by setting is: (dose: 18.0 mg/kg/injection, schedule: Q01DX001 (ip), vehicle: saline with Tween-80) 220 % of control; (dose: 26.0 mg/kg/injection, schedule: Q01DX001 (ip), vehicle: saline with Tween-80) 408 % of control; (dose: 40.0 mg/kg/injection, schedule: Q01DX001 (ip), vehicle: saline with Tween-80) 352 % of control; (dose: 60.0 mg/kg/injection, schedule: Q01DX001 (ip), vehicle: saline with Tween-80) 193 % of control.

As to `O=NN(CCCl)C(=O)NC1C=CCCC1` (stereo not given), the T/C is, setting by setting: (dose: 15.0 mg/kg/injection, schedule: Q01DX001 (ip), vehicle: other) 110 % of control; (dose: 20.0 mg/kg/injection, schedule: Q01DX001 (ip), vehicle: other) 118 % of control; (dose: 25.0 mg/kg/injection, schedule: Q01DX001 (ip), vehicle: other) 122 % of control; (dose: 30.0 mg/kg/injection, schedule: Q01DX001 (ip), vehicle: other) 118 % of control; (dose: 35.0 mg/kg/injection, schedule: Q01DX001 (ip), vehicle: other) 123 % of control.

In the case of `O=NN(CCCl)C(=O)Nc1ccccc1`, the T/C was 97 % of control under setting [1]; 101 % of control under setting [2]; 107 % of control and 96 % of control under setting [3]; 95 % of control (dose: 36.0 mg/kg/injection, schedule: Q01DX001 (ip), vehicle: carboxymethylcellulose (CMC)); 93 % of control (dose: 72.0 mg/kg/injection, schedule: Q01DX001 (ip), vehicle: carboxymethylcellulose (CMC)).

With `O=NN(CCCl)C(=O)N[C@@H]1CCC[C@@H](O)C1`, the T/C is, setting by setting: (dose: 8.0 mg/kg/injection, schedule: Q01DX001 (ip), vehicle: saline with Tween-80) 118 % of control; (dose: 20.0 mg/kg/injection, schedule: Q01DX001 (ip), vehicle: saline with Tween-80) 361 % of control; (dose: 30.0 mg/kg/injection, schedule: Q01DX001 (ip), vehicle: saline with Tween-80) 413 % of control; (dose: 44.0 mg/kg/injection, schedule: Q01DX001 (ip), vehicle: saline with Tween-80) 260 % of control.

As to `CC(C)(Cc1ccccc1)NC(=O)N(CCCl)N=O`, the T/C (dose: 375.0 mg/kg/injection, schedule: Q01DX001 (ip), vehicle: other) is 122 % of control and the T/C (dose: 500.0 mg/kg/injection, schedule: Q01DX001 (ip), vehicle: other) is 114 % of control.

On to `O=NN(CCCl)C(=O)Nc1cc(NC(=O)N(CCCl)N=O)cc(C(=O)O)c1`, for which the T/C is 108 % of control (dose: 1.5 mg/kg/injection, schedule: Q01DX001 (ip), vehicle: carboxymethylcellulose (CMC)); 106 % of control (dose: 3.0 mg/kg/injection, schedule: Q01DX001 (ip), vehicle: carboxymethylcellulose (CMC)); 104 % of control (dose: 5.0 mg/kg/injection, schedule: Q01DX001 (ip), vehicle: carboxymethylcellulose (CMC)); 104 % of control under setting [1]; 102 % of control under setting [2]; 110 % of control under setting [3]. The T/C (dose: 26.0 mg/kg/injection, schedule: Q01DX001 (ip), vehicle: carboxymethylcellulose (CMC)) was 106 % of control; the T/C (dose: 40.0 mg/kg/injection, schedule: Q01DX001 (ip), vehicle: carboxymethylcellulose (CMC)) was 93 % of control; the T/C (dose: 60.0 mg/kg/injection, schedule: Q01DX001 (ip), vehicle: carboxymethylcellulose (CMC)) is 87 % of control.

For `O=NN(CCO)C(=O)Nc1c[nH]c(=O)[nH]c1=O`, the T/C is 100 % of control (dose: 173.0 mg/kg/injection, schedule: Q01DX001 (ip), vehicle: carboxymethylcellulose (CMC)); 102 % of control (dose: 260.0 mg/kg/injection, schedule: Q01DX001 (ip), vehicle: carboxymethylcellulose (CMC)); 106 % of control (dose: 400.0 mg/kg/injection, schedule: Q01DX001 (ip), vehicle: carboxymethylcellulose (CMC)).

With `O=NN(CCCl)C(=O)NC1CCCCCCCCCCC1`, the T/C is 103 % of control (dose: 298.0 mg/kg/injection, schedule: Q01DX001 (ip), vehicle: other); 124 % of control (dose: 550.0 mg/kg/injection, schedule: Q01DX001 (ip), vehicle: other); 108 % of control (dose: 596.0 mg/kg/injection, schedule: Q01DX001 (ip), vehicle: other); 159 % of control and 160 % of control (dose: 1250.0 mg/kg/injection, schedule: Q01DX001 (ip), vehicle: other); 123 % of control (dose: 1875.0 mg/kg/injection, schedule: Q01DX001 (ip), vehicle: other); 110 % of control (dose: 2384.0 mg/kg/injection, schedule: Q01DX001 (ip), vehicle: other).

As to `O=NN(CCBr)C(=O)NC1CCCCC1`, the T/C reads like this: (dose: 137.0 mg/kg/injection, schedule: Q01DX001 (ip), vehicle: carboxymethylcellulose (CMC)) 108 % of control; (dose: 345.0 mg/kg/injection, schedule: Q01DX001 (ip), vehicle: carboxymethylcellulose (CMC)) 224 % of control.

Take `O=C1N[C@@H]([C@H]2CC[C@H](Cl)CN2)C(=O)N[C@H]1[C@H]1CC[C@H](Cl)CN1`: the T/C (dose: 0.5 mg/kg/injection, schedule: Q01DX009 (ip), vehicle: saline) was 110 % of control; the T/C (dose: 1.0 mg/kg/injection, schedule: Q01DX001 (ip), vehicle: saline) is 102 % of control; the T/C (dose: 1.0 mg/kg/injection, schedule: Q01DX009 (ip), vehicle: saline) is 118 % of control; the T/C (dose: 2.0 mg/kg/injection, schedule: Q01DX001 (ip), vehicle: saline) is 103 % of control and 100 % of control; the T/C (dose: 4.0 mg/kg/injection, schedule: Q01DX001 (ip), vehicle: saline) was 103 % of control and 119 % of control; the T/C (dose: 8.0 mg/kg/injection, schedule: Q01DX001 (ip), vehicle: saline) is 105 % of control and 123 % of control.
